From EP2119770B1, “Production of alpha-oxyfunctionalized carbonyl compounds” (priority 2008, dated 2009)

Key:
Format in all cases: biochemical
Gox0313 = biological target: T1, Gox0313 (Gluconobacter oxydans, UniProt Q5FU50); test: Enzyme activity assay (rate of NAD(P)H decrease at 340 nm), Gox0313; details: Tab. 6, Gox0313; substrate reduction, cofactor NADH; 10 mM substrate, pH 7.0, 30 °C
T1 sequence (Q5FU50 1-343): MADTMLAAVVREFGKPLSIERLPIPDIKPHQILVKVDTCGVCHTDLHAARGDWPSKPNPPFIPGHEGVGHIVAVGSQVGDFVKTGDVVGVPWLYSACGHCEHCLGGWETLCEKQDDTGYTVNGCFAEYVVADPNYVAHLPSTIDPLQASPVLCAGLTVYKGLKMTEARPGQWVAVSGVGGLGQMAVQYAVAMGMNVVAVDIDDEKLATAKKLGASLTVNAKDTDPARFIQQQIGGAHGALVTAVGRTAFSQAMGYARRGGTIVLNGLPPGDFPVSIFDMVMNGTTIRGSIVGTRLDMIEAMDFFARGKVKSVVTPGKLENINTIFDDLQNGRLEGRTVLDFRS
Method: (§1) Measurment of enzyme activity: NADPH-dependent alpha-ketocarbonyl reductases were assayed by a routine method used for NAD(P)-linked enzymes by recording the rate of decrease of NADPH at 340 nm (ε = 6.22 mM^-1 x cm^-1)) with substrates at 30 °C. The reaction mixture (1 ml) for reduction of alpha-ketocarbonyl substrates contained 10 mM substrate, 40 mM potassium phosphate buffer pH 7.0, 0.025 mM NAD(P)H , and the enzyme. Reactions were induced by addition of enzyme or substrate. One unit of enzyme activity was defined as the amount of enzyme catalyzing the conversion of 1 µmol of pyridine nucleotide per min at 30 °C.
(§2) NADPH-dependent α-ketocarbonyl reductases were assayed by a routine method used for NAD(P)-linked enzymes by recording the rate of decrease of NADPH at 340 nm (ε = 6.22 mM^-1.cm^-1) with substrates at 30 °C. The reaction mixture (1 ml) for reduction of alpha-ketocarbonyl substrates contained 10 mM substrate, 40 mM potassium phosphate buffer pH 7.0, 0.025 mM NADPH , and the enzyme. Reactions were induced by addition of enzyme or substrate. One unit of enzyme activity was defined as the amount of enzyme catalyzing the conversion of 1 µmol of pyridine nucleotide per min at 30 °C.
(§3) For each enzyme (Gox0313, Gox0502, Gox0644, Gox0646, Gox1615, Gox2107, and Gox2684 respectively), fresh enzyme preparations were used to validate the substrate spectrum and the kinetic activity. […] Purified NAD(P)-dependent oxidoreductases were assayed at 30 °C by a routine method used for NAD(P)-linked enzymes by recording the rate of decrease of NAD(P)H at 340 nm (ε = […]) with substrates capable of reduction reactions. The standard reaction mixture (1 ml) for the reduction reactions of substrates contained 10 mM substrate, 40 mM potassium phosphate buffer (K-phosphate buffer) pH 7.0, 0.05 mM NAD(P)H, and the enzyme unless otherwise noted. Reactions were induced by addition of enzyme or substrate. One unit of enzyme activity was defined as the amount of enzyme catalyzing the conversion of 1 µmol of pyridine nucleotide per min at 30 °C. Measurement of the protein content was performed by the method of Bradford in Anal. Biochem. 72:248-254 (1976). Table 3: Summary of enzymatic activities with α-diketones, α-ketoaldehydes and /or α-ketoesters

Gox1615 = biological target: T2, Gox1615 (Gluconobacter oxydans, UniProt Q5FQJ0); test: Enzyme activity assay (rate of NAD(P)H decrease at 340 nm), Gox1615; details: Tab. 5, Gox1615; cofactor NADPH; 10 mM substrate, pH 7.0, 30 °C
T2 sequence (Q5FQJ0 1-332): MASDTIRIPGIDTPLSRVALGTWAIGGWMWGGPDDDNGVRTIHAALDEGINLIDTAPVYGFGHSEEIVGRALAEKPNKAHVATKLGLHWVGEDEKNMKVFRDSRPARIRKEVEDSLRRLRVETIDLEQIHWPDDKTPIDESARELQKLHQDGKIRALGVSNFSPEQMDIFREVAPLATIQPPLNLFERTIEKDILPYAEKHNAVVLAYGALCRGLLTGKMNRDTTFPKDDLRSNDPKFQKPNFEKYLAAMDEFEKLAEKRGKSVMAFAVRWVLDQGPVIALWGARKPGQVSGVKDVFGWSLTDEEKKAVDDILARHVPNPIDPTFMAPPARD
Method: as §1, §2, §3

Gox2107 = Gox2107 (Gluconobacter oxydans, UniProt Q5FP53); test: Enzyme activity assay (rate of NAD(P)H decrease at 340 nm), Gox2107; details: for Specific Activity: Tab. 7, Gox2107, cofactor NADPH, 10 mM substrate, pH 7.0, 30 °C
Method: as §1, §2, §3

Gox0502 = biological target: T3, Gox0502 (Gluconobacter oxydans, UniProt Q5FTL6); test: Enzyme activity assay (rate of NAD(P)H decrease at 340 nm), Gox0502; design: Strep-tag II (N); made in house; host or cells: E. coli BL21 or E. coli DH5α (pASK-IBA5); details: Tab. 7, Gox0502; cofactor NADPH; 10 mM substrate, pH 7.0, 30 °C
T3 sequence (Q5FTL6 1-361): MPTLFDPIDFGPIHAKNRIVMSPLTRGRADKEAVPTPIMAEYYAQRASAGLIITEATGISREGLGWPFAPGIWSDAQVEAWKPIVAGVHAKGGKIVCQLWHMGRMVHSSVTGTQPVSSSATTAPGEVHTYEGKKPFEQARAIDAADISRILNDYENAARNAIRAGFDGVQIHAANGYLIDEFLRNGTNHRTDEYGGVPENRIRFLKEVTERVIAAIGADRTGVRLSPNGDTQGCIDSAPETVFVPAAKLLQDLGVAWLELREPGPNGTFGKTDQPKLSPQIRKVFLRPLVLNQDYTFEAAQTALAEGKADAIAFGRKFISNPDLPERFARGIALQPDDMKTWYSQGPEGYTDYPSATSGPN
Method: as §1, §2, §3

Gox2684 = biological target: T4, Gox2684 (Gluconobacter oxydans, UniProt Q5HXK5); test: Enzyme activity assay (rate of NAD(P)H decrease at 340 nm), Gox2684; details: Tab. 8, GOX2684; cofactor NADPH; 10 mM substrate, pH 7.0, 30 °C
T4 sequence (Q5HXK5 1-357): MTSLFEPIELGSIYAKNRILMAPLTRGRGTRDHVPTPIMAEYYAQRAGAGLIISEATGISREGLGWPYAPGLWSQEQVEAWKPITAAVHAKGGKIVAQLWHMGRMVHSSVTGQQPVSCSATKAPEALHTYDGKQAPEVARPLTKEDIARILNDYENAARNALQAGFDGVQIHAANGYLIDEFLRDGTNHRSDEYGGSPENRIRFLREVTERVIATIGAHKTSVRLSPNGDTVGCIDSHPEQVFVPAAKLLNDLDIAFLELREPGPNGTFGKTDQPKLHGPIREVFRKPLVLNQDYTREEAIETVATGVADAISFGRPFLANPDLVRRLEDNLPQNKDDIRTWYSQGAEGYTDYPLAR
Method: as §1, §2, §3

Gox0644 = Gox0644 (Gluconobacter oxydans, UniProt Q5FT75); test: Enzyme activity assay (rate of NAD(P)H decrease at 340 nm), Gox0644; details: for reduction by Gox0644 (result in words): NADPH; for Specific Activity: Tab. 4, Gox0644, cofactor NADPH, 10 mM substrate, pH 7.0, 30 °C
Method: (§4) Reactions were induced by addition of enzyme or substrate. One unit of enzyme activity was defined as the amount of enzyme catalyzing the conversion of 1 µmol of pyridine nucleotide per min at 30 °C.
as §4
For each enzyme (Gox0313, Gox0502, Gox0644, Gox0646, Gox1615, Gox2107, and Gox2684 respectively), fresh enzyme preparations were used to validate the substrate spectrum and the kinetic activity. […] Reactions were induced by addition of enzyme or substrate. One unit of enzyme activity was defined as the amount of enzyme catalyzing the conversion of 1 µmol of pyridine nucleotide per min at 30 °C. […] Table 3: Summary of enzymatic activities with α-diketones, α-ketoaldehydes and /or α-ketoesters

Row | Molecule | Specific Activity (Gox0313) [U/mg] | Specific Activity (Gox1615) [U/mg] | other results
1 | O=CC(O)CO (racemic) [DL-glyceraldehyde] | 1.2 | 19 | 
2 | C=CC(=O)CC [1-pentene-3-one] |  |  | Specific Activity (Gox2107): 14.0 U/mg; Specific Activity (Gox0502): 6.1 U/mg
3 | O=C1C=CCCC1 [2-cyclohexene-1-one] |  |  | Specific Activity (Gox2107): 3.3 U/mg; Specific Activity (Gox0502): 9.8 U/mg
4 | O=C1C=C(O)C(=O)c2ccccc21 [2-hydroxy-1,4-naphthoquinone] |  |  | Specific Activity (Gox2107): 16.04 U/mg; Specific Activity (Gox0502): 0.75 U/mg; Specific Activities (Gox2684): 0.7 U/mg
5 | CC1=CC(=O)c2ccccc2C1=O [2-methyl-1,4-naphthoquinone] |  |  | Specific Activity (Gox2107): 124.1 U/mg; Specific Activity (Gox0502): 10 U/mg; Specific Activities (Gox2684): 6.8 U/mg
6 | CCCC(C)C=O (centres unmarked) [2-methylvaleraldehyde] |  | 13.4 | 
7 | CC=CC(C)=O [3-penten-2-one] | 1.5 | 0.5 | Specific Activity (Gox2107): 1.9 U/mg; Specific Activity (Gox0502): 3.6 U/mg; Specific Activities (Gox2684): 1.9 U/mg
8 | CC(=O)C=CC(C)C [5-methyl-3-hexen-2-one] |  | 0.3 | 
9 | C=C(C)[C@H]1CC=C(C)C(=O)C1 [(+)-Carvone] |  |  | Specific Activity (Gox2107): < 0.1 U/mg; Specific Activity (Gox0502): 8.0 U/mg
10 | N#CC1=C(C#N)C(=O)C(Cl)=C(Cl)C1=O [DDQ] |  |  | Specific Activity (Gox2107): 26.5 U/mg; Specific Activity (Gox0502): < 0.1 U/mg
11 | NC(=O)C1=CN([C@@H]2O[C@H](COP(=O)(O)OP(=O)(O)OC[C@H]3O[C@@H](n4cnc5c(N)ncnc54)[C@H](O)[C@@H]3O)[C@@H](O)[C@H]2O)C=CC1 [NADH] |  |  | decrease in activity with NADH (Gox2107; Gox2107, NADH compared with the preferred NADPH (data not shown)): 7.5 fold
12 | CCCCCCCCC=O [Nonal] | 4.4 | 9.3 | 
13 | CC=O [acetaldehyde] | 61.0 |  | 
14 | CC(=O)C(C)O (centres unmarked) [acetoin] | 10.5 |  | reduction by Gox0644 (result in words) (Gox0644): not reduced
15 | CC(C)=O [acetone] |  |  | reduction by Gox0644 (result in words) (Gox0644): not reduced
16 | CC(=O)CC(C)=O [acetylacetone] |  |  | reduction by Gox0644 (result in words) (Gox0644): not reduced
17 | O=Cc1ccccc1 [benzaldehyde] | 9.4 | 12.2 | 
18 | O=C(C(=O)c1ccccc1)c1ccccc1 [benzil] | 0.1 |  | Specific Activity (Gox0644): 14.0 U/mg
19 | CCCC=O [butyraldehyde] | 8.5 | 14 | 
20 | O=CC=Cc1ccccc1 [cinnamaldehyde] | 7.0 |  | Specific Activities (Gox2684): 0.4 U/mg

Row | Molecule | Specific Activity (Gox0313) [U/mg] | Specific Activity (Gox1615) [U/mg] | other results
21 | CCCCCCCCCC=O [decanal] | 18.8 | 10.5 | 
22 | CCCCCCCCCCCC=O [dodecanal] | 2.4 | 15.6 | 
23 | O=CCCCC=O [glutaraldehyde] |  | 13.5 | 
24 | O=CCO [glycolaldehyde] | 37.5 | 4.1 | 
25 | O=CC=O [glyoxal] |  | 5 | Specific Activity (Gox0644): 1.1 U/mg
26 | O=CC(=O)O [glyoxalate] |  |  | Specific Activity (Gox0644): 1.2 U/mg
27 | CCCCCCC=O [heptanal] | 8.6 | 15.5 | 
28 | CCCCCC=O [hexanal] | 6.0 | 10.3 | 
29 | O=CCCc1ccccc1 [hydrocinnamaldehyde] | 32.1 |  | Specific Activities (Gox2684): 1.9 U/mg
30 | CC(C)CC=O [isovaleraldehyde] |  | 12 | 
31 | Cc1cccc(C=O)c1 [m-toluylaldehyde] |  | 1.5 | 
32 | Cc1ccccc1C=O [o-toluylaldehyde] |  | 0.8 | 
33 | CCCCCCCC=O [octanal] | 1.5 | 5.3 | 
34 | Cc1ccc(C=O)cc1 [p-toluylaldehyde] | 3.3 | 2.3 | 
35 | O=CCc1ccccc1 [phenylacetaldehyde] |  | 6.5 | 
36 | CCC=O [propionaldehyde] | 15.0 | 8.4 | 
37 | CCCCCCCCCCC=O [undecylaldehyde] | 8.5 | 7.5 | 
38 | CCCCC=O [valeraldehyde] | 8.9 | 15.1 | 
39 | glucose | 4.7 |  | 
40 | mannose | 9.7 |  | 
